Measured values from patent US9592212B2, “Use of pan-PPAR agonists for treatment of tauopathies” (Cornell University, priority 2011, dated 2017).

Experiments:
N171-82Q mice = conditions: cited from earlier work
R6/2 mice [1] = experiment: Behavioral tests (grip strength, open field, rotarod) in R6/2 mice; format: in vivo; conditions: 0.5% bezafibrate diet
Experimental: (§1) All experiments were conducted within National Institutes of Health guidelines for animal research and were approved by the Weill Cornell Medical College Animal Care and Use Committee. The animals were kept on a 12-hr light/dark cycle, with food and water available ad libitum. Mice were fed standard diet containing 0.5% bezafibrate or standard diet (Purina-Mills Richmond, Ind., USA), starting right after weaning up to 3 months of age.
Experimenters were blind to the genotype during all testing, at least until the appearance of a robust behavioral phenotype in the mutants. We utilized a behavioral testing battery consisting of: rotarod, grip strength and open field. […] The latency to fall from the rod was recorded. Exploratory behavior was recorded in the open-field (45 cm×45 cm; height: 20 cm), for 10 min per day using a video tracking system (Ethovision 3.0, Noldus Technology, Attleborough, Mass., USA) and averaged over 3 days. […]
To assess muscle strength we tested the R6/2 mice and their wild-type littermates on the grip strength test (FIG. 2A). […] Motor coordination was assessed by performance on an accelerated rotarod apparatus. Latency to fall was recorded for 3 trials per weekly assessment and scores were averaged (FIG. 2C).

R6/2 mice [2] = experiment: Survival of R6/2 mice (Kaplan-Meier); format: in vivo; conditions: 0.5% bezafibrate diet
Experimental: as §1
R6/2 mice normally die prematurely as compared to their wild-type littermates, between the age of 70-91 days (Mangiarini et al. 1996). Symptomatic mice approaching the disease endstage were examined twice daily (morning and late afternoon) to assess when they reached end-stage of the disease, as assessed by the righting reflex or failure to eat moistened chow placed beside mice over a 24 hour period. At this point, mice were euthanized by CO2 inhalation. This day was recorded as time of death of the mice. […] In our hands, the R6/2 mice survived to 77-88 days of age, and the longest living mouse died at 90 days of age (mean=84+1.2 days). Bezafibrate treated R6/2 mice lived 20% longer than the R6/2 mice on a standard diet (mean=102+3.2 days) (FIG. 2D).

P301S mice = experiment: Mitochondria characterisation in brains of P301S and wild-type mice; format: in vivo
From the text: Animals were generated by breeding P301S transgenic male mice with wild-type female mice obtained from Jackson Laboratory (Bar Harbor, Me., USA). Offspring were genotyped by PCR of tail DNA. P301S transgenic mice and their wild-type littermates were randomly assigned to receive either control diet (LabDiet 5002) or 0.5% bezafibrate diet (Sigma, St. Louis, Mo., USA) from 1 to 10 months of age ad libitum. The chow was pelleted by Purina-Mills (Richmond, Ind., USA). Behavioral analyses were performed at 5, 7, and 9 months of age. Histopathological and biochemical analyses were conducted at 10 months of age on the same animals. All experiments were approved by the Weill Cornell Medical College Institutional Animal Care and Use Committee.
Dissected, non-perfused frontal lobe samples (˜30-55 mg) were stored frozen at ? 80° C. until assaying. Before assays, tissue samples were thawed on ice and homogenized with Dounce-type 2 ml homogenizer (glass vessel/glass pestle). […]
The protein lysates containing equal amounts of protein were separated by SDS-PAGE, electroblotted onto a nitrocellulose membrane (BioRad, Hercules, Calif., USA), and immunoreacted with an appropriate primary antibody (see below) followed by HRP-conjugated secondary antibody (Kierkegaard Perry Labs Inc., Gaithersburg, Md., USA). […] Quantitative analysis was performed using NIH “ImageJ” software. […]

[3] = used in man for more than 25 years; cited from earlier work

Structure (SMILES) | increase in survival (N171-82Q mice) [%] | increase in grip strength compared to untreated R6/2 mice (R6/2 mice [1]) | increase in survival vs R6/2 mice on standard diet (R6/2 mice [2]) [%] | mean survival (R6/2 mice [2]; standard diet mean=84+1.2 days) | mitochondrial enzymes and PGC1α in brain (P301S mice) | tolerability in man [3]
CN(CC(=O)O)C(=N)N [creatine] | 19 |  |  |  |  | 
CC(C)(Oc1ccc(CCNC(=O)c2ccc(Cl)cc2)cc1)C(=O)O [bezafibrate] |  | up to 2 fold | 20 | 102+3.2 days | no effect | well-tolerated with few side effects
